ChEMBL document CHEMBL1201861, “Genomics of Drug Sensitity in Cancer screening data, Wellcome Trust Sanger Institute”

Tests used:
BFTC-909 = experiment: cells; type: functional, cell-based, Homo sapiens; details: Homo sapiens, BFTC-909
Description: SANGER: Inhibition of human BFTC-909 cell growth in a cell viability assay.

SiHa = experiment: cells; type: functional, cell-based, Homo sapiens; details: Homo sapiens, SiHa;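 further: Viability-based readout of growth inhibition in SiHa cells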
Description: SANGER: Inhibition of human SiHa cell growth in a cell viability assay.

D-542MG = experiment: cells; type: functional, cell-based, Homo sapiens; details: Homo sapiens, D-542MG
Description: SANGER: Inhibition of human D-542MG cell growth in a cell viability assay.

MDA-MB-361 = experiment: cells; type: functional, cell-based, Homo sapiens; details: Homo sapiens, MDA-MB-361
MKN-28 = experiment: cells; type: functional, cell-based, Homo sapiens; details: Homo sapiens, MKN-28;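 further: cell viability assay read-out, IC50 reflects suppression of growth of human MKN-28 cells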
Description: SANGER: Inhibition of human MKN28 cell growth in a cell viability assay.

NCI-H650 = experiment: cells; type: functional, cell-based, Homo sapiens; details: Homo sapiens, NCI-H650;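 further: growth inhibition of NCI-H650 cells, read out by a viability assay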
Description: SANGER: Inhibition of human NCI-H650 cell growth in a cell viability assay.

MDA-MB-175-VII = experiment: cells; type: functional, cell-based, Homo sapiens; details: Homo sapiens, MDA-MB-175-VII
CAL-85-1 = experiment: cells; type: functional, cell-based, Homo sapiens; details: Homo sapiens, CAL-85-1;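 further: growth inhibition of human CAL-85-1 cells, read out with a cell viability assay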
Description: SANGER: Inhibition of human CAL-85-1 cell growth in a cell viability assay.

EGI-1 = experiment: cells; type: functional, cell-based, Homo sapiens; details: Homo sapiens, EGI-1;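 further: cell viability readout used to gauge growth inhibition of EGI-1 cells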
Description: SANGER: Inhibition of human EGI-1 cell growth in a cell viability assay.

HSC-4 = experiment: cells; type: functional, cell-based, Homo sapiens; details: Homo sapiens, HSC-4;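 further: growth inhibition of human HSC-4 cells, read out with a cell viability assay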
Description: SANGER: Inhibition of human HSC-4 cell growth in a cell viability assay.

DoTc2-4510 = experiment: cells; type: functional, cell-based, Homo sapiens; details: Homo sapiens, DoTc2-4510
H4 = experiment: cells; type: functional, cell-based, Homo sapiens; details: Homo sapiens, H4
Description: SANGER: Inhibition of human H4 cell growth in a cell viability assay.

NUGC-3 = experiment: cells; type: functional, cell-based, Homo sapiens; details: Homo sapiens, NUGC-3;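 further: growth inhibition of human NUGC-3 cells, read out with a cell viability assay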
Description: SANGER: Inhibition of human NUGC-3 cell growth in a cell viability assay.

DMS-273 = experiment: cells; type: functional, cell-based, Homo sapiens; details: Homo sapiens, DMS-273
Description: SANGER: Inhibition of human DMS-273 cell growth in a cell viability assay.

SW1573 = experiment: cells; type: functional, cell-based, Homo sapiens; details: Homo sapiens, SW1573;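 further: growth inhibition of SW1573 cells, read out with a cell viability assay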
Description: SANGER: Inhibition of human SW1573 cell growth in a cell viability assay.

A549 = experiment: cells; type: functional, cell-based, Homo sapiens; details: Homo sapiens, A549;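 further: growth inhibition of A549 cells, read out with a cell viability assay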
Description: SANGER: Inhibition of human A549 cell growth in a cell viability assay.

PC-3 = experiment: cells; type: functional, cell-based, Homo sapiens; details: Homo sapiens, PC-3;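 further: cell viability assay measuring growth inhibition of PC-3 cells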
Description: SANGER: Inhibition of human PC-3 cell growth in a cell viability assay.

HCC1419 = experiment: cells; type: functional, cell-based, Homo sapiens; details: Homo sapiens, HCC1419;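 further: growth inhibition of human HCC1419 cells, read out as cell viability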
Description: SANGER: Inhibition of human HCC1419 cell growth in a cell viability assay.

C32 = experiment: cells; type: functional, cell-based, Homo sapiens; details: Homo sapiens, C32;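 further: cell viability assay, with IC50 reflecting inhibition of C32 cell growth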
Description: SANGER: Inhibition of human C32 cell growth in a cell viability assay.

ME-180 = experiment: cells; type: functional, cell-based, Homo sapiens; details: Homo sapiens, ME-180;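 further: cell viability assay measuring growth inhibition of ME-180 cells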
Description: SANGER: Inhibition of human ME-180 cell growth in a cell viability assay.

SK-MEL3 = experiment: cells; type: functional, cell-based, Homo sapiens, SK-MEL-3; details: Homo sapiens, SK-MEL3;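 further: growth inhibition of human SK-MEL-3 cells, read out with a cell viability assay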
Description: SANGER: Inhibition of human SK-MEL-3 cell growth in a cell viability assay.

GAMG = experiment: cells; type: functional, cell-based, Homo sapiens; details: Homo sapiens, GAMG;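 further: cell growth inhibition measured by a viability assay in the GAMG human cell line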
Description: SANGER: Inhibition of human GAMG cell growth in a cell viability assay.

LoVo = experiment: cells; type: functional, cell-based, Homo sapiens; details: Homo sapiens, LoVo;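 further: growth inhibition of human LoVo cells, read out with a cell viability assay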
Description: SANGER: Inhibition of human LoVo cell growth in a cell viability assay.

OE33 = experiment: cells; type: functional, cell-based, Homo sapiens; details: Homo sapiens, OE33;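 further: growth inhibition of human OE33 cells, measured by a cell viability assay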
Description: SANGER: Inhibition of human OE33 cell growth in a cell viability assay.

SBC-5 = experiment: cells; type: functional, cell-based, Homo sapiens; details: Homo sapiens, SBC-5;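 further: cell viability assay read-out, IC50 is the concentration that inhibits growth of the cells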
Description: SANGER: Inhibition of human SBC-5 cell growth in a cell viability assay.

A2780 = experiment: cells; type: functional, cell-based, Homo sapiens; details: Homo sapiens, A2780;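 further: growth inhibition of A2780 cells, read out with a cell viability assay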
Description: SANGER: Inhibition of human A2780 cell growth in a cell viability assay.

HuCCT-1 = experiment: cells; type: functional, cell-based, Homo sapiens, HuCCT1; details: Homo sapiens, HuCCT-1;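 further: growth inhibition of HuCCT-1 cells, read out by a cell viability assay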
Description: SANGER: Inhibition of human HuCCT1 cell growth in a cell viability assay.

GCT = experiment: cells; type: functional, cell-based, Homo sapiens; details: Homo sapiens, GCT;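 further: GCT cell line proliferation inhibition, read out with a cell viability assay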
Description: SANGER: Inhibition of human GCT cell growth in a cell viability assay.

KYSE-270 = experiment: cells; type: functional, cell-based, Homo sapiens; details: Homo sapiens, KYSE-270;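 further: cell growth inhibition measured with a viability assay in the human KYSE-270 line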
Description: SANGER: Inhibition of human KYSE-270 cell growth in a cell viability assay.

SCC-25 = experiment: cells; type: functional, cell-based, Homo sapiens; details: Homo sapiens, SCC-25;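 further: growth inhibition of SCC-25 cells, measured with a cell viability assay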
Description: SANGER: Inhibition of human SCC-25 cell growth in a cell viability assay.

A-375 = experiment: cells; type: functional, cell-based, Homo sapiens; details: Homo sapiens, A-375;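 further: growth inhibition of A375 cells, read out with a cell viability assay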
Description: SANGER: Inhibition of human A375 cell growth in a cell viability assay.

YAPC = experiment: cells; type: functional, cell-based, Homo sapiens; details: Homo sapiens, YAPC;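 further: growth inhibition of YAPC cells, measured with a cell viability assay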
Description: SANGER: Inhibition of human YAPC cell growth in a cell viability assay.

NCCIT = experiment: SANGER: Inhibition of human NCCIT cell growth in a cell viability assay.; type: functional, cell-based; details: Homo sapiens, NCCIT
K052 = experiment: cells; type: functional, cell-based, Homo sapiens; details: Homo sapiens, K052;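 further: Read-out from a cell viability assay, IC50 reflecting suppression of K052 cell growth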
Description: SANGER: Inhibition of human K052 cell growth in a cell viability assay.

NCI-H187 = experiment: cells; type: functional, cell-based, Homo sapiens; details: Homo sapiens, NCI-H187;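 further: growth inhibition of NCI-H187 cells, read out as cell viability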
Description: SANGER: Inhibition of human NCI-H187 cell growth in a cell viability assay.

NCI-H1963 = experiment: cells; type: functional, cell-based, Homo sapiens; details: Homo sapiens, NCI-H1963;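 further: cell growth inhibition of the human line, determined with a cell viability assay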
Description: SANGER: Inhibition of human NCI-H1963 cell growth in a cell viability assay.

CPC-N = experiment: cells; type: functional, cell-based, Homo sapiens; details: Homo sapiens, CPC-N;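 further: growth inhibition of CPC-N cells, with a cell viability assay as the readout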
Description: SANGER: Inhibition of human CPC-N cell growth in a cell viability assay.

TALL-1 = experiment: cells; type: functional, cell-based, Homo sapiens; details: Homo sapiens, TALL-1;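 further: growth inhibition of cultured human TALL-1 cells, read out by a cell viability assay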
Description: SANGER: Inhibition of human TALL-1 cell growth in a cell viability assay.

RL95-2 = experiment: cells; type: functional, cell-based; details: Homo sapiens;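 further: RL95-2 growth inhibition determined through a cell viability readout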
Description: SANGER: Inhibition of human RL95-2 cell growth in a cell viability assay.

SIG-M5 = experiment: cells; type: functional, cell-based, Homo sapiens; details: Homo sapiens, SIG-M5;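 further: cell viability assay read-out, measuring how strongly growth of cultured human SIG-M5 cells is inhibited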
Description: SANGER: Inhibition of human SIG-M5 cell growth in a cell viability assay.

NCI-H524 = experiment: cells; type: functional, cell-based, Homo sapiens; details: Homo sapiens, NCI-H524;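 further: growth inhibition of human NCI-H524 cells, read out through a cell viability assay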
Description: SANGER: Inhibition of human NCI-H524 cell growth in a cell viability assay.

NCI-H64 = experiment: cells; type: functional, cell-based, Homo sapiens; details: Homo sapiens, NCI-H64;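 further: growth inhibition of NCI-H64 cells, read out with a cell viability assay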
Description: SANGER: Inhibition of human NCI-H64 cell growth in a cell viability assay.

PF-382 = experiment: cells; type: functional, cell-based, Homo sapiens; details: Homo sapiens, PF-382
Description: SANGER: Inhibition of human PF-382 cell growth in a cell viability assay.

LU-165 = experiment: cells; type: functional, cell-based, Homo sapiens; details: Homo sapiens, LU-165
Description: SANGER: Inhibition of human LU-165 cell growth in a cell viability assay.

KMS-12-PE = experiment: cells; type: functional, cell-based, Homo sapiens; details: Homo sapiens, KMS-12-PE;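 further: growth inhibition of human KMS-12-PE cells, measured with a cell viability assay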
Description: SANGER: Inhibition of human KMS-12-PE cell growth in a cell viability assay.

NCI-H2171 = experiment: cells; type: functional, cell-based, Homo sapiens; details: Homo sapiens, NCI-H2171;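 further: growth inhibition of human NCI-H2171 cells, read out by a cell viability assay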
Description: SANGER: Inhibition of human NCI-H2171 cell growth in a cell viability assay.

EVSA-T = experiment: cells; type: functional, cell-based, Homo sapiens; details: Homo sapiens, EVSA-T;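 further: growth inhibition of EVSA-T cells, read out with a cell viability assay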
Description: SANGER: Inhibition of human EVSA-T cell growth in a cell viability assay.

Measured: IC50

Cc1cn(-c2cc(NC(=O)c3ccc(C)c(Nc4nccc(-c5cccnc5)n4)c3)cc(C(F)(F)F)c2)cn1 [NILOTINIB]
not listed: NCCIT | K052 | NCI-H187 | NCI-H1963 | CPC-N | TALL-1 | RL95-2 | SIG-M5 | NCI-H524 | NCI-H64 | PF-382 | LU-165 | KMS-12-PE | NCI-H2171 | EVSA-T
> 2 µM: all other assays above

Nc1cccc2c1CN(C1CCC(=O)NC1=O)C2=O (centres undefined) [LENALIDOMIDE]
not listed: NCCIT | K052 | NCI-H187 | NCI-H1963 | CPC-N | TALL-1 | RL95-2 | SIG-M5 | NCI-H524 | NCI-H64 | PF-382 | LU-165 | KMS-12-PE | NCI-H2171 | EVSA-T
> 5 µM: all other assays above

CC(=O)O[C@H]1C(=O)[C@@]2(C)[C@H]([C@H](OC(=O)c3ccccc3)[C@]3(O)C[C@H](OC(=O)[C@H](O)[C@@H](NC(=O)c4ccccc4)c4ccccc4)C(C)=C1C3(C)C)[C@]1(OC(C)=O)CO[C@@H]1C[C@@H]2O [PACLITAXEL]
0.0238 µM: PF-382
0.0308 µM: CPC-N
0.0325 µM: K052
> 0.102 µM: NCI-H187 | LU-165 | KMS-12-PE | NCI-H2171
0.000668 µM: RL95-2
0.00327 µM: SIG-M5
0.0313 µM: NCI-H1963
0.0177 µM: NCCIT
0.0392 µM: EVSA-T
0.0386 µM: NCI-H64
0.0353 µM: NCI-H524
0.0504 µM: TALL-1

N[C@@H](CSC(c1ccccc1)(c1ccccc1)c1ccccc1)C(=O)O [S-TRITYL-L-CYSTEINE]
2.39 µM: NCCIT
2.46 µM: CPC-N
2.53 µM: TALL-1
1.15 µM: NCI-H1963
1.03 µM: NCI-H524
3.48 µM: NCI-H64
0.605 µM: RL95-2
> 5.12 µM: NCI-H187 | LU-165 | KMS-12-PE | NCI-H2171
1.67 µM: PF-382
3.4 µM: EVSA-T
0.971 µM: K052
2.77 µM: SIG-M5

CCN(CC)CCNC(=O)c1c(C)[nH]c(/C=C2\C(=O)Nc3ccc(F)cc32)c1C [SUNITINIB]
1.37 µM: SIG-M5
2.11 µM: RL95-2
> 8 µM: NCCIT | NCI-H187 | NCI-H1963 | CPC-N | TALL-1 | NCI-H524 | NCI-H64 | LU-165 | KMS-12-PE | NCI-H2171 | EVSA-T
3.45 µM: PF-382
2.4 µM: K052
